Several values for one entry are separate records, joined by “and”; a condition that tells them apart may be missing. Equal values may be shown once. Toxic doses and inconclusive results are not listed.
Test system: L1210 leukemia ip in BDF1 mice, survival T/C
Assay: NCI In Vivo Anticancer Drug Screen. Data for tumor model L1210 Leukemia (intraperitoneal) in B6D2F1 (BDF1) mice
Settings: endpoint: mean survival time, higher = longer survival
In short: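 Transplantable tumor model; survival measured in treated vs vehicle control mice. Value = treated/control.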

[1] = dose: 100.0 mg/kg/injection, schedule: Q01DX001 (ip), vehicle: carboxymethylcellulose (CMC)
[2] = dose: 200.0 mg/kg/injection, schedule: Q01DX001 (ip), vehicle: carboxymethylcellulose (CMC)
[3] = dose: 400.0 mg/kg/injection, schedule: Q01DX001 (ip), vehicle: carboxymethylcellulose (CMC)
[4] = dose: 100.0 mg/kg/injection, schedule: Q01DX001 (ip), vehicle: Klucel (hydroxypropylcellulose) (HPC)
[5] = dose: 200.0 mg/kg/injection, schedule: Q01DX001 (ip), vehicle: Klucel (hydroxypropylcellulose) (HPC)
[6] = dose: 12.5 mg/kg/injection, schedule: Q01DX009 (ip), vehicle: saline
[7] = dose: 25.0 mg/kg/injection, schedule: Q01DX009 (ip), vehicle: saline
[8] = dose: 50.0 mg/kg/injection, schedule: Q01DX009 (ip), vehicle: saline
[9] = dose: 100.0 mg/kg/injection, schedule: Q01DX001 (ip), vehicle: saline
[10] = dose: 200.0 mg/kg/injection, schedule: Q01DX001 (ip), vehicle: saline
[11] = dose: 100.0 mg/kg/injection, schedule: Q01DX009 (ip), vehicle: Klucel (hydroxypropylcellulose) (HPC)
[12] = dose: 100.0 mg/kg/injection, schedule: Q04DX003 (ip), vehicle: Klucel (hydroxypropylcellulose) (HPC)
[13] = dose: 200.0 mg/kg/injection, schedule: Q01DX009 (ip), vehicle: Klucel (hydroxypropylcellulose) (HPC)
[14] = dose: 200.0 mg/kg/injection, schedule: Q04DX003 (ip), vehicle: Klucel (hydroxypropylcellulose) (HPC)
[15] = dose: 400.0 mg/kg/injection, schedule: Q01DX009 (ip), vehicle: Klucel (hydroxypropylcellulose) (HPC)
[16] = dose: 100.0 mg/kg/injection, schedule: Q04DX003 (ip), vehicle: saline with Tween-80
[17] = dose: 200.0 mg/kg/injection, schedule: Q04DX003 (ip), vehicle: saline with Tween-80
[18] = dose: 400.0 mg/kg/injection, schedule: Q01DX001 (ip), vehicle: saline
[19] = dose: 400.0 mg/kg/injection, schedule: Q04DX003 (ip), vehicle: saline with Tween-80
[20] = dose: 100.0 mg/kg/injection, schedule: Q04DX002 (ip), vehicle: Klucel (hydroxypropylcellulose) (HPC)
[21] = dose: 200.0 mg/kg/injection, schedule: Q04DX002 (ip), vehicle: Klucel (hydroxypropylcellulose) (HPC)
[22] = dose: 100.0 mg/kg/injection, schedule: Q01DX001 (ip), vehicle: saline with Tween-80
[23] = dose: 200.0 mg/kg/injection, schedule: Q01DX001 (ip), vehicle: saline with Tween-80
[24] = dose: 400.0 mg/kg/injection, schedule: Q01DX001 (ip), vehicle: saline with Tween-80
[25] = dose: 75.0 mg/kg/injection, schedule: Q01DX001 (ip), vehicle: saline
[26] = dose: 150.0 mg/kg/injection, schedule: Q01DX001 (ip), vehicle: saline
[27] = dose: 300.0 mg/kg/injection, schedule: Q01DX001 (ip), vehicle: saline

With `NC(=S)N/N=C/c1cc(Cl)ccc1O` the T/C [1] was 94 % of control, the T/C [2] was 100 % of control and the T/C [3] was 96 % of control.

With `COC(=O)c1cc2nccc3c4ccccc4n(c1=O)c23` the T/C (dose: 100.0 mg/kg/injection, schedule: Q04DX003 (ip), vehicle: alcohol) was 103 % of control, the T/C (dose: 200.0 mg/kg/injection, schedule: Q04DX003 (ip), vehicle: alcohol) was 97 % of control and the T/C (dose: 400.0 mg/kg/injection, schedule: Q04DX003 (ip), vehicle: alcohol) was 98 % of control.

`O=C1c2cc([N+](=O)[O-])ccc2-c2cc(Br)cc(Br)c21` was tested, and the T/C [1] was 93 % of control, the T/C [2] was 108 % of control and the T/C [3] was 98 % of control.

For `O=NN(CCCl)C(=O)CCCCC(=O)N(CCCl)N=O`, the T/C (dose: 25.0 mg/kg/injection, schedule: Q01DX001 (ip), vehicle: carboxymethylcellulose (CMC)) was 154 % of control, the T/C (dose: 50.0 mg/kg/injection, schedule: Q01DX001 (ip), vehicle: carboxymethylcellulose (CMC)) was 160 % of control and the T/C [4] was 75 % of control. For the same compound, the T/C [1] was 165 % of control, the T/C [5] was 67 % of control and the T/C [2] was 122 % of control.

`Cc1n(Cc2ccccc2)cc[n+]1C` was tested, and the T/C [6] was 109 % of control and 119 % of control, the T/C (dose: 12.5 mg/kg/injection, schedule: Q04DX002 (ip), vehicle: saline) was 100 % of control and 111 % of control and the T/C [7] was 117 % of control and 119 % of control. The T/C (dose: 25.0 mg/kg/injection, schedule: Q04DX002 (ip), vehicle: saline) was 100 % of control and the T/C [8] was 93 % of control.

With `CCCCNC(c1ccc(C[N+]2(C)CCCC2)cc1)C(Cl)(Cl)Cl` (stereo not drawn) the T/C (dose: 10.0 mg/kg/injection, schedule: Q01DX001 (ip), vehicle: saline) was 95 % of control and the T/C (dose: 20.0 mg/kg/injection, schedule: Q01DX001 (ip), vehicle: saline) was 95 % of control.

With `CSc1nc(F)nc2c1ncn2C1OC(CO)C(O)C1O` (stereo not drawn) the T/C [9] was 88 % of control and the T/C [10] was 100 % of control.

`CCc1ccc(NC(=O)Nc2cccc3ccccc23)cc1` was tested, and the T/C [11] was 87 % of control, the T/C [12] was 98 % of control and the T/C [13] was 90 % of control. The T/C [14] was 90 % of control, the T/C [15] was 92 % of control and the T/C (dose: 400.0 mg/kg/injection, schedule: Q04DX003 (ip), vehicle: Klucel (hydroxypropylcellulose) (HPC)) was 96 % of control.

`CNC(=O)Nc1cc(C)ccc1OC` was tested, and the T/C [11] was 100 % of control, the T/C [13] was 104 % of control and the T/C [15] was 109 % of control.

With `C1CC[N-]CC1.Oc1ccccc1C=NCCN=Cc1ccccc1O.[CH3-].[Rh+2]` the T/C (dose: 50.0 mg/kg/injection, schedule: Q01DX009 (ip), vehicle: saline with Tween-80) was 109 % of control, the T/C (dose: 100.0 mg/kg/injection, schedule: Q01DX009 (ip), vehicle: saline with Tween-80) was 115 % of control and the T/C [16] was 106 % of control. The T/C (dose: 200.0 mg/kg/injection, schedule: Q01DX009 (ip), vehicle: saline with Tween-80) was 91 % of control and the T/C [17] was 117 % of control.

`CC(C)=Cc1ccno1` was tested, and the T/C [9] was 100 % of control, the T/C [10] was 100 % of control and the T/C [18] was 100 % of control.

In the case of `CC(Cc1ccccc1)NCCn1cnc2c1c(=O)n(C)c(=O)n2C` (stereo not drawn), the T/C (dose: 6.25 mg/kg/injection, schedule: Q01DX009 (ip), vehicle: saline) is reported as 94 % of control, the T/C [6] is reported as 98 % of control and the T/C [7] is reported as 94 % of control. For the same compound, the T/C [8] was 102 % of control.

`CN(C)c1ccc(C(=O)c2ccc(N(C)C)cc2)cc1` was tested, and the T/C [16] was 93 % of control, the T/C [17] was 88 % of control and the T/C [19] was 97 % of control.

`O=S1(=O)C(c2ccccc2)=C1c1ccccc1` was tested, and the T/C (dose: 12.5 mg/kg/injection, schedule: Q01DX001 (ip), vehicle: other) was 100 % of control, the T/C (dose: 12.5 mg/kg/injection, schedule: Q01DX009 (ip), vehicle: other) was 95 % of control and the T/C (dose: 25.0 mg/kg/injection, schedule: Q01DX001 (ip), vehicle: other) was 94 % of control and 100 % of control. The T/C (dose: 25.0 mg/kg/injection, schedule: Q01DX009 (ip), vehicle: other) was 101 % of control, the T/C (dose: 50.0 mg/kg/injection, schedule: Q01DX001 (ip), vehicle: other) was 97 % of control and 101 % of control and the T/C (dose: 50.0 mg/kg/injection, schedule: Q01DX009 (ip), vehicle: other) was 86 % of control.

With `CCC1(C)C(=O)N(Br)C(=O)N1Br` (stereo not drawn) the T/C [8] was 91 % of control, the T/C (dose: 50.0 mg/kg/injection, schedule: Q04DX003 (ip), vehicle: saline) was 100 % of control and the T/C [4] was 106 % of control. For the same compound, the T/C (dose: 100.0 mg/kg/injection, schedule: Q01DX009 (ip), vehicle: saline) was 95 % of control, the T/C (dose: 100.0 mg/kg/injection, schedule: Q04DX003 (ip), vehicle: saline) was 105 % of control and the T/C [5] was 102 % of control. The T/C (dose: 200.0 mg/kg/injection, schedule: Q01DX009 (ip), vehicle: saline) was 95 % of control and the T/C (dose: 200.0 mg/kg/injection, schedule: Q04DX003 (ip), vehicle: saline) was 97 % of control.

`COc1cc2c(cc1OC)C1CCC3=C(O)CCC3=[N+]1CC2` (stereo not drawn) was tested, and the T/C [20] was 101 % of control and the T/C [21] was 86 % of control.

`Cc1cccc2c(N3CCOCC3)c3c(nc12)CCCCC3` was tested, and the T/C [16] was 96 % of control, the T/C [17] was 95 % of control and the T/C [19] was 101 % of control.

With `CN(C)C(=O)N/C=C/NC(=O)N(C)C` the T/C (dose: 12.5 mg/kg/injection, schedule: Q04DX002 (ip), vehicle: saline with Tween-80) was 92 % of control, the T/C (dose: 25.0 mg/kg/injection, schedule: Q04DX002 (ip), vehicle: saline with Tween-80) was 89 % of control and the T/C (dose: 50.0 mg/kg/injection, schedule: Q04DX002 (ip), vehicle: saline with Tween-80) was 106 % of control.

`O=C(COc1ccc(Cl)cc1Cl)Nc1c(Cl)cc(Cl)cc1Cl` was tested, and the T/C [20] was 99 % of control, the T/C [21] was 108 % of control and the T/C (dose: 400.0 mg/kg/injection, schedule: Q04DX002 (ip), vehicle: Klucel (hydroxypropylcellulose) (HPC)) was 86 % of control.

With `Nc1ncnc(N)c1NC(=O)c1cc(Cl)c(OCc2ccccc2)c(Cl)c1` the T/C [22] was 91 % of control, the T/C [23] was 96 % of control and the T/C [24] was 96 % of control.

In the case of `COC(=O)C(Cc1[nH]cnc1N=Nc1ccc(Br)cc1)NC(C)=O` (stereo not drawn), the T/C [22] is reported as 107 % of control, the T/C [23] is reported as 96 % of control and the T/C [24] is reported as 96 % of control.

`OC(CCCNc1ccccc1)CCCNc1ccccc1` was tested, and the T/C [25] was 96 % of control and the T/C [26] was 91 % of control.

With `OC/C=C/c1cccs1` the T/C (dose: 100.0 mg/kg/injection, schedule: Q04DX002 (ip), vehicle: saline) was 98 % of control and the T/C (dose: 200.0 mg/kg/injection, schedule: Q04DX002 (ip), vehicle: saline) was 95 % of control.

In the case of `CC(=O)OCC1OC(n2cnc([N+](=O)[O-])c2Br)C(OC(C)=O)C1OC(C)=O` (stereo not drawn), the T/C (dose: 50.0 mg/kg/injection, schedule: Q01DX001 (ip), vehicle: saline) is reported as 98 % of control, the T/C [9] is reported as 98 % of control and the T/C [10] is reported as 102 % of control. The T/C [18] was 102 % of control.

With `CC(=O)Nc1ccc(OC(=O)Nc2cccc3ccccc23)cc1` the T/C [12] was 89 % of control and the T/C [14] was 96 % of control.

In the case of `COC(=O)c1ccc2c(c1)NP(=O)(c1ccccc1)S2` (stereo not drawn), the T/C [25] is reported as 98 % of control, the T/C [26] is reported as 104 % of control and the T/C [27] is reported as 98 % of control.

With `O=C(O)c1c(O)cc(=O)oc1-c1ccccc1Cl` the T/C [25] was 97 % of control, the T/C [26] was 101 % of control and the T/C [27] was 96 % of control.

In the case of `O=C(O)C12CCC1(Cl)CC2` (stereo not drawn), the T/C (dose: 50.0 mg/kg/injection, schedule: Q04DX002 (ip), vehicle: Klucel (hydroxypropylcellulose) (HPC)) is reported as 104 % of control, the T/C [20] is reported as 97 % of control and the T/C [21] is reported as 108 % of control.
